In brackets after ≈: the same amount, converted by molar mass. Where two headings read alike, the source gives them in different places.
Assays:
Assay in all cases: Bacterial growth minimal inhibitory concentration (microdilution, cation-adjusted Mueller-Hinton Broth)
Format in all cases: cell-based
K. pneumoniae A-651 = conditions: for MIC: Klebsiella pneumoniae
In short: (§1)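 Broth microdilution in cation-adjusted Mueller-Hinton Broth per CLSI M7-A7, MIC in mg/L. K. pneumoniae A-651 is multiply resistant, including to quinolones. E. coli ATCC25922 and P. aeruginosa ATCC27853 are quinolone-sensitive.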

P. aeruginosa ATCC27853 = conditions: for MIC: Pseudomonas aeruginosa; for MIC for P. aeruginosa ATCC27853: quinolone-sensitive strain
In short: as §1

E. coli ATCC25922 = conditions: for MIC: Escherichia coli
In short: as §1

[1] = A651, multiply-resistant strain (in particular quinolone-resistant), read-out: MIC for K. Pneumoniae A-651
[2] = ATCC27853, quinolone-sensitive strain, read-out: MIC for P. aeruginosa ATCC27853
[3] = ATCC25922, quinolone-sensitive strain, read-out: MIC for E. coli ATCC25922
[4] = multiply-resistant strain (in particular quinolone-resistant)

| MIC (K. pneumoniae A-651; [1]) | MIC (P. aeruginosa ATCC27853; [2]) | MIC (E. coli ATCC25922; [3]) | SMILES | also measured |
| --- | --- | --- | --- | --- |
| 8 mg/L (≈ 17 µM) | 4 mg/L (≈ 8.5 µM) | 4 mg/L (≈ 8.5 µM) | C[C@@](CCN1Cc2cc(C#CC#CCNS(C)(=O)=O)cn2C1=O)(C(=O)NO)S(C)(=O)=O [Example 58, (R)-N-hydroxy-2-methyl-4-(6-(5-(methylsulfonamido)penta-1,3-diyn-1-yl)-3-oxo-1H-pyrrolo[1,2-c]imidazol-2(3H)-yl)-2-(methylsulfonyl)butanamide] |  |
| 1 mg/L (≈ 1.7 µM) | 8 mg/L (≈ 13.6 µM) | 1 mg/L (≈ 1.7 µM) | CC(C)(C)OC(=O)N1CC(O)(c2ccc(C#Cc3cc4n(c3)C(=O)N(CC[C@](C)(C(=O)NO)S(C)(=O)=O)C4)cc2)C1 [Example 59, tert-butyl (R)-3-hydroxy-3-(4-((2-(4-(hydroxyamino)-3-methyl-3-(methylsulfonyl)-4-oxobutyl)-3-oxo-2,3-dihydro-1H-pyrrolo[1,2-c]imidazol-6-yl)ethynyl)phenyl)azetidine-1-carboxylate] |  |
| 0.25 mg/L (≈ 0.559 µM) | 0.25 mg/L (≈ 0.559 µM) | 0.25 mg/L (≈ 0.559 µM) | C[C@]1(CO)C[C@@H]1C#CC#Cc1cc2n(c1)C(=O)N(CC[C@](C)(C(=O)NO)S(C)(=O)=O)C2 [Example 61, (R)-N-hydroxy-4-(6-(((1R,2S)-2-(hydroxymethyl)-2-methylcyclopropyl)buta-1,3-diyn-1-yl)-3-oxo-1H-pyrrolo[1,2-c]imidazol-2(3H)-yl)-2-methyl-2-(methylsulfonyl)butanamide] |  |
| 4 mg/L (≈ 8.39 µM) | 1 mg/L (≈ 2.1 µM) | 1 mg/L (≈ 2.1 µM) | C[C@@](CCN1Cc2cc(C#CC#CC3CN(C(=O)CO)C3)cn2C1=O)(C(=O)NO)S(C)(=O)=O [Example 62, (R)-N-hydroxy-4-(6-((1-(2-hydroxyacetyl)azetidin-3-yl)buta-1,3-diyn-1-yl)-3-oxo-1H-pyrrolo[1,2-c]imidazol-2(3H)-yl)-2-methyl-2-(methylsulfonyl)butanamide] |  |
| 4 mg/L (≈ 8.9 µM) | 4 mg/L (≈ 8.9 µM) | 2 mg/L (≈ 4.45 µM) | C[C@@](CCN1Cc2cc(C#CC#CCC3(O)COC3)cn2C1=O)(C(=O)NO)S(C)(=O)=O [Example 63, (R)-N-hydroxy-4-(6-(5-(3-hydroxyoxetan-3-yl)penta-1,3-diyn-1-yl)-3-oxo-1H-pyrrolo[1,2-c]imidazol-2(3H)-yl)-2-methyl-2-(methylsulfonyl)butanamide] |  |
| 8 mg/L (≈ 17.3 µM) | 4 mg/L (≈ 8.63 µM) | 4 mg/L (≈ 8.63 µM) | C[C@@](CCN1Cc2cc(C#CC#CC3(O)CCOCC3)cn2C1=O)(C(=O)NO)S(C)(=O)=O [Example 64, (R)-N-hydroxy-4-(6-((4-hydroxytetrahydro-2H-pyran-4-yl)buta-1,3-diyn-1-yl)-3-oxo-1H-pyrrolo[1,2-c]imidazol-2(3H)-yl)-2-methyl-2-(methylsulfonyl)butanamide] |  |
| 8 mg/L (≈ 17.3 µM) | 1 mg/L (≈ 2.16 µM) | 2 mg/L (≈ 4.32 µM) | C[C@@](CCN1Cc2cc(C#CC#C[C@@H]3CC[C@@H](N)CO3)cn2C1=O)(C(=O)NO)S(C)(=O)=O [Example 65, (R)-4-(6-(((2S,5R)-5-aminotetrahydro-2H-pyran-2-yl)buta-1,3-diyn-1-yl)-3-oxo-1H-pyrrolo[1,2-c]imidazol-2(3H)-yl)-N-hydroxy-2-methyl-2-(methylsulfonyl)butanamide] |  |
| 0.125 mg/L (≈ 0.262 µM) | 1 mg/L (≈ 2.1 µM) | 0.125 mg/L (≈ 0.262 µM) | C[C@@](CCN1Cc2cc(C#Cc3ccc(C4(N)CC4)s3)cn2C1=O)(C(=O)NO)S(C)(=O)=O [Example 68, (R)-4-(6-((5-(1-aminocyclopropyl)thiophen-2-yl)ethynyl)-3-oxo-1H-pyrrolo[1,2-c]imidazol-2(3H)-yl)-N-hydroxy-2-methyl-2-(methylsulfonyl)butanamide] |  |
| 2 mg/L (≈ 4.11 µM) | 2 mg/L (≈ 4.11 µM) | 0.5 mg/L (≈ 1.03 µM) | C[C@@](CCN1Cc2cc(C#Cc3ccc(C4(N)COC4)cc3)cn2C1=O)(C(=O)NO)S(C)(=O)=O [Example 69, (R)-4-(6-((4-(3-aminooxetan-3-yl)phenyl)ethynyl)-3-oxo-1H-pyrrolo[1,2-c]imidazol-2(3H)-yl)-N-hydroxy-2-methyl-2-(methylsulfonyl)butanamide] |  |
| 2 mg/L (≈ 3.99 µM) | 2 mg/L (≈ 3.99 µM) | 1 mg/L (≈ 1.99 µM) | C[C@@](CCN1Cc2cc(C#Cc3ccc(C4(CO)COC4)cc3)cn2C1=O)(C(=O)NO)S(C)(=O)=O [Example 70, (R)-N-hydroxy-4-(6-((4-(3-(hydroxymethyl)oxetan-3-yl)phenyl)ethynyl)-3-oxo-1H-pyrrolo[1,2-c]imidazol-2(3H)-yl)-2-methyl-2-(methylsulfonyl)butanamide] |  |
| 1 mg/L (≈ 2.05 µM) | 1 mg/L (≈ 2.05 µM) | 0.25 mg/L (≈ 0.512 µM) | C[C@@](CCN1Cc2cc(C#Cc3ccc(NC(=O)CO)cc3)cn2C1=O)(C(=O)NO)S(C)(=O)=O [Example 71, (R)-N-hydroxy-4-(6-((4-(2-hydroxyacetamido)phenyl)ethynyl)-3-oxo-1H-pyrrolo[1,2-c]imidazol-2(3H)-yl)-2-methyl-2-(methylsulfonyl)butanamide] |  |
| 2 mg/L (≈ 4.16 µM) | 2 mg/L (≈ 4.16 µM) | 1 mg/L (≈ 2.08 µM) | CC(C)(O)c1ncc(C#Cc2cc3n(c2)C(=O)N(CC[C@](C)(C(=O)NO)S(C)(=O)=O)C3)s1 [Example 76, (R)-N-hydroxy-4-(6-((2-(2-hydroxypropan-2-yl)thiazol-5-yl)ethynyl)-3-oxo-1H-pyrrolo[1,2-c]imidazol-2(3H)-yl)-2-methyl-2-(methylsulfonyl)butanamide] |  |
| 16 mg/L | 2 mg/L | 8 mg/L | C[C@@](CCN1Cc2cc(C#Cc3ccc(CN4CCC(N)CC4)cc3)cn2C1=O)(C(=O)NO)S(C)(=O)=O.Cl.Cl [Example 77, (R)-4-(6-((4-((4-aminopiperidin-1-yl)methyl)phenyl)ethynyl)-3-oxo-1H-pyrrolo[1,2-c]imidazol-2(3H)-yl)-N-hydroxy-2-methyl-2-(methylsulfonyl)butanamide dihydrochloride] |  |

The remaining lines, values behind:

| SMILES | MIC (K. pneumoniae A-651; [1]) | MIC (P. aeruginosa ATCC27853; [2]) | MIC (E. coli ATCC25922; [3]) | also measured |
| --- | --- | --- | --- | --- |
| CCOc1ccc(-c2cc3n(c2)C(=O)N(CC[C@](C)(C(=O)NO)S(C)(=O)=O)C3)c(Cl)c1 [Example 49, (R)-4-(6-(2-chloro-4-ethoxyphenyl)-3-oxo-1H-pyrrolo[1,2-c]imidazol-2(3H)-yl)-N-hydroxy-2-methyl-2-(methylsulfonyl)butanamide] | 0.125 mg/L (≈ 0.266 µM) | 4 mg/L (≈ 8.51 µM) | ≤ 0.063 mg/L |  |
| COc1ccc(-c2cc3n(c2)C(=O)N(CC[C@](C)(C(=O)NO)S(C)(=O)=O)C3)c(Cl)c1 [Example 52, (R)-4-(6-(2-chloro-4-methoxyphenyl)-3-oxo-1H-pyrrolo[1,2-c]imidazol-2(3H)-yl)-N-hydroxy-2-methyl-2-(methylsulfonyl)butanamide] | ≤ 0.063 mg/L | 2 mg/L (≈ 4.39 µM) | ≤ 0.063 mg/L |  |
| C[C@@](CCN1Cc2cc(-c3ccc(C(F)(F)F)cc3F)cn2C1=O)(C(=O)NO)S(C)(=O)=O [Example 53, (R)-4-(6-(2-fluoro-4-(trifluoromethyl)phenyl)-3-oxo-1H-pyrrolo[1,2-c]imidazol-2(3H)-yl)-N-hydroxy-2-methyl-2-(methylsulfonyl)butanamide] | 0.25 mg/L (≈ 0.524 µM) | 8 mg/L (≈ 16.8 µM) | 0.25 mg/L (≈ 0.524 µM) |  |
| C[C@@](CCN1Cc2cc(-c3ccc(F)c(F)c3F)cn2C1=O)(C(=O)NO)S(C)(=O)=O [Example 54, (R)-N-hydroxy-2-methyl-2-(methylsulfonyl)-4-(3-oxo-6-(2,3,4-trifluorophenyl)-1H-pyrrolo[1,2-c]imidazol-2(3H)-yl)butanamide] | 1 mg/L (≈ 2.25 µM) | 1 mg/L (≈ 2.25 µM) | 0.125 mg/L (≈ 0.281 µM) |  |
| COc1ccc(-c2cc3n(c2)C(=O)N(CC[C@](C)(C(=O)NO)S(C)(=O)=O)C3)c(F)c1F [Example 55, (R)-4-(6-(2,3-difluoro-4-methoxyphenyl)-3-oxo-1H-pyrrolo[1,2-c]imidazol-2(3H)-yl)-N-hydroxy-2-methyl-2-(methylsulfonyl)butanamide] | 1 mg/L (≈ 2.19 µM) | 4 mg/L (≈ 8.74 µM) | 0.125 mg/L (≈ 0.273 µM) |  |
| C[C@@](CCN1Cc2cc(C#CC#CC3(CO)CCC3)cn2C1=O)(C(=O)NO)S(C)(=O)=O [Example 56, (R)-N-hydroxy-4-(6-((1-(hydroxymethyl)cyclobutyl)buta-1,3-diyn-1-yl)-3-oxo-1H-pyrrolo[1,2-c]imidazol-2(3H)-yl)-2-methyl-2-(methylsulfonyl)butanamide] | 1 mg/L (≈ 2.23 µM) | 2 mg/L (≈ 4.47 µM) | 0.25 mg/L (≈ 0.559 µM) |  |
| C[C@@](CCN1Cc2cc(C#CC#CC3(CO)COC3)cn2C1=O)(C(=O)NO)S(C)(=O)=O [Example 57] |  |  |  | MIC for K. Pneumoniae A-651 (K. pneumoniae A-651; [4]): 2 mg/L; MIC for P. aeruginosa ATCC27853 (P. aeruginosa ATCC27853): 4 mg/L; MIC for E. coli ATCC25922 (E. coli ATCC25922; quinolone-sensitive strain): 1 mg/L |
| C[C@@](CCN1Cc2cc(C#Cc3ccc(C4(N)CC4)cc3)cn2C1=O)(C(=O)NO)S(C)(=O)=O [Example 72, (R)-4-(6-((4-(1-aminocyclopropyl)phenyl)ethynyl)-3-oxo-1H-pyrrolo[1,2-c]imidazol-2(3H)-yl)-N-hydroxy-2-methyl-2-(methylsulfonyl)butanamide] |  |  |  | MIC (K. pneumoniae A-651; A651, read-out: MIC for K. Pneumoniae A-651): 0.25 mg/L (≈ 0.531 µM); MIC (P. aeruginosa ATCC27853; ATCC27853, read-out: MIC for P. aeruginosa ATCC27853): 0.5 mg/L (≈ 1.06 µM); MIC (E. coli ATCC25922; ATCC25922, read-out: MIC for E. coli ATCC25922): 0.125 mg/L (≈ 0.266 µM) |
| C[C@@](CCN1Cc2cc(C#CC#CC[C@]3(O)C[C@@H](CO)C3)cn2C1=O)(C(=O)NO)S(C)(=O)=O [Example 73, (R)-N-hydroxy-4-(6-(5-((1s,3R)-1-hydroxy-3-(hydroxymethyl)cyclobutyl)penta-1,3-diyn-1-yl)-3-oxo-1H-pyrrolo[1,2-c]imidazol-2(3H)-yl)-2-methyl-2-(methylsulfonyl)butanamide] |  |  |  | MIC for K. Pneumoniae A-651 (K. pneumoniae A-651; [4]): 16 mg/L; MIC for P. aeruginosa ATCC27853 (P. aeruginosa ATCC27853): 4 mg/L; MIC for E. coli ATCC25922 (E. coli ATCC25922; quinolone-sensitive strain): 8 mg/L |
| C[C@@](CCN1Cc2cc(C#CC#CC3(COC(=O)OCOP(=O)(O)O)CC3)cn2C1=O)(C(=O)NO)S(C)(=O)=O [Example 75, (R)-(1-((2-(4-(hydroxyamino)-3-methyl-3-(methylsulfonyl)-4-oxobutyl)-3-oxo-2,3-dihydro-1H-pyrrolo[1,2-c]imidazol-6-yl)buta-1,3-diyn-1-yl)cyclopropyl)methyl((phosphonooxy)methyl)carbonate] |  |  |  | MIC for K. Pneumoniae A-651 (K. pneumoniae A-651; [4]): 2 mg/L; MIC for P. aeruginosa ATCC27853 (P. aeruginosa ATCC27853): 2 mg/L; MIC for E. coli ATCC25922 (E. coli ATCC25922; quinolone-sensitive strain): 1 mg/L |
